Source: patent EP0845034B1, “PEPTIDE HAVING PRONOCICEPTIVE PROPERTIES” (Euroscreen S.A., priority 1995, dated 1997)
Structures can show the parent of a compound that is named as a salt.

Assays:
[1] = tested on: mice; test: antagonism of nociceptin-induced stimulation of horizontal locomotor activity; format: in vivo
[2] = tested on: mice; conditions: mouse, in vivo

Compound: C=CCN1CC[C@]23c4c5ccc(O)c4O[C@H]2C(=O)CC[C@@]3(O)[C@H]1C5 [Naloxone, Naloxone hydrochloride]
- effect on motor-stimulant effect of nociceptin ([1]; 0.0-4.5 mg/kg s.c., 10 minutes before i.c.v. 100 ng nociceptin, first 10 minutes of testing): did not suppress

Compound: O=C(CCCN1CCC(O)(c2ccc(Cl)cc2)CC1)c1ccc(F)cc1 [haloperidol]
- effect on nociceptin-induced stimulation of locomotor activity ([1]; increasing doses of D2 dopamine receptor antagonist pretreatment): antagonized

Compound: CN1CC[C@]23c4c5ccc(O)c4O[C@H]2[C@@H](O)C=C[C@H]3[C@H]1C5 [morphin]
- number of explored holes [2]: 24 ± 2
